Measurements taken from US9737545B2 (MERCK SHARP & DOHME CORP., priority 2013, dated 2017).

Molecular target: T1, wildtype HIV-1 protease (Human immunodeficiency virus type 1 group M subtype B, UniProt P04585)
T1 construct: preincubated with the HIV-1 protease (wild type) enzyme in assay buffer; made in house; host or cells: Escherichia coli
Assay: Assay for Inhibition of Microbial Expressed HIV Protease (Pepcleav)
Assay type: biochemical
Protocol: Assay for Inhibition of Microbial Expressed HIV Protease (“Pepcleav”)
Studies of the inhibition of the wildtype HIV-1 protease (which was expressed in Escherichia coli) were carried out with a peptide substrate [Val-Ser-Gln-Asn-(βnaphthyl)Ala-Pro-Ile-Val (SEQ ID NO: 1)]. The inhibitor was first preincubated with the HIV-1 protease (wild type) enzyme in assay buffer (50 mM sodium acetate, pH 5.5, 100 mM NaCl, and 0.1% BSA) for 30 minutes at room temperature. Substrate was added to 400 micromolar in a total volume of 20 microliters containing 20 picomolar HIV-1 protease (final) and the reaction was incubated for 1 hour at 30° C. The reaction was quenched with the addition of formic acid and indinavir to 0.012% and 150 nM final concentrations, respectively. The product formation was determined after separation of product and substrate on a Zorbax Eclipse XDB-C18 column connected to an API 4000 mass spectrometer (Applied Biosystems) with multiple reaction monitoring (transitions were 644.5/428.9 and 615.4/422.2 (M1/M3) for product and indinavir respectively). The extent of inhibition of the reaction was determined from the peak area of the products. Analysis of the products, independently synthesized, provided quantitation standards and confirmation of the product composition.

Question: With `COC(=O)N[C@H](C(=O)Nc1ccccc1CC[C@@H]1CN[C@H](c2nc3c(Cl)cc(C(F)(F)F)cc3[nH]2)CO1)C(c1ccccc1)c1ccccc1` [Example 26, methyl N-[(1S)-1-benzhydryl-2-[[2-[2-[(2R,5R)-5-[4-chloro-6-(trifluoromethyl)-1H-benzimidazol-2-yl]morpholin-2-yl]ethyl]phenyl]amino]-2-oxo-ethyl]carbamate] as the molecule, how does the IC50 read?
Answer: 65.6 nM

Question: Which IC50 does the source give for `COC(=O)N[C@H](C(=O)Nc1ccccc1CC[C@@H]1CN[C@H](c2nc3cc(F)c(Cl)cc3[nH]2)CO1)C(c1ccccc1)c1ccccc1` [Example 27, N-(2-{2-[(2R,5R)-5-(6-chloro-5-fluoro-1H-benzimidazol-2-yl)morpholin-2-yl]ethyl}phenyl)-Na-(methoxycarbonyl)-b-phenyl-L-phenylalaninamide] here?
Answer: 0.658 nM

Question: Which IC50 does the source give for `COC(=O)N[C@H](C(=O)Nc1ccccc1CC[C@@H]1CN[C@H](c2nc3c(F)cccc3[nH]2)CO1)C(c1ccccc1)c1ccccc1` [Example 28, N-(2-{2-[(2R,5R)-5-(4-fluoro-1H-benzimidazol-2-yl)morpholin-2-yl]ethyl}phenyl)-Na-(methoxycarbonyl)-b-phenyl-L-phenylalaninamide] here?
Answer: 0.122 nM

Question: With `COC(=O)N[C@H](C(=O)Nc1cccc(F)c1CC[C@@H]1CN[C@H](c2nc3cc(C)c(C)cc3[nH]2)CO1)C(c1ccccc1)c1ccccc1` [Example 29, N-(2-{2-[(2R,5R)-5-(5,6-dimethyl-1H-benzimidazol-2-yl)morpholin-2-yl]ethyl}-3-fluorophenyl)-Na-(methoxycarbonyl)-b-phenyl-L-phenylalaninamide] as the molecule, how does the IC50 read?
Answer: 0.0127 nM

Question: For `COC(=O)N[C@H](C(=O)Nc1cncc(F)c1CC[C@@H]1CN[C@H](c2nc3cc(C)c(C)cc3[nH]2)CO1)C(c1ccccc1)c1ccccc1` [Example 31, methyl N-[(1S)-1-benzhydryl-2-[[4-[2-[(2R,5R)-5-(5,6-dimethyl-1H-benzimidazol-2-yl)morpholin-2-yl]ethyl]-5-fluoro-3-pyridyl]amino]-2-oxo-ethyl]carbamate], which IC50 is on record?
Answer: 0.00965 nM

Question: How did the IC50 turn out when `COC(=O)N[C@H](C(=O)Nc1cnccc1CC[C@@H]1CN[C@H](c2nc3cc(C)c(C)cc3[nH]2)CO1)C(c1ccccc1)c1ccccc1` [Example 32, methyl N-[(1S)-1-benzhydryl-2-[[4-[2-[(2R,5R)-5-(5,6-dimethyl-1H-benzimidazol-2-yl)morpholin-2-yl]ethyl]-3-pyridyl]amino]-2-oxo-ethyl]carbamate] was run?
Answer: 0.04 nM

Question: For `Cc1cc2nc([C@@H]3CO[C@H](CCc4c(F)cncc4NC(=O)C4(Cc5ccccc5Cl)CC4)CN3)[nH]c2cc1C` [Example 33], which IC50 is on record?
Answer: 4.08 nM

Question: With `Cc1cc2nc([C@@H]3CO[C@H](CCc4cc[nH]c(=O)c4NC(=O)[C@@H](N)C(c4ccccc4)c4ccccc4)CN3)[nH]c2cc1C` [Example 34, N-(4-{2-[(2R,5R)-5-(5,6-dimethyl-1H-benzimidazol-2-yl)morpholin-2-yl]ethyl}-2-oxo-1,2-dihydropyridin-3-yl)-β-phenyl-L-phenylalaninamide] as the molecule, how does the IC50 read?
Answer: 0.168 nM

Question: `COC(=O)N[C@H](C(=O)Nc1c(CC[C@@H]2CN[C@H](c3nc4cc(C)c(C)cc4[nH]3)CO2)cc[nH]c1=O)C(c1ccccc1)c1ccccc1` [Example 35, methyl N-[(1S)-1-benzhydryl-2-[[4-[2-[(2R,5R)-5-(5,6-dimethyl-1H-benzimidazol-2-yl)morpholin-2-yl]ethyl]-2-oxo-1H-pyridin-3-yl]amino]-2-oxo-ethyl]carbamate] was tested. Which IC50 did it give?
Answer: 0.159 nM

Question: Which IC50 does the source give for `COC(=O)N[C@H](C(=O)Nc1ccccc1CC[C@@H]1CN[C@H](c2nnc(C)[nH]2)CO1)C(c1ccccc1)c1ccccc1` [Example 36, Nα-(methoxycarbonyl)-N-[2-(2-{(2R,5R)-5-[(5-methyl-4H-1,2,4-triazol-3-yl)]morpholin-2-yl}ethyl)phenyl]-β-phenyl-L-phenylalaninamide] here?
Answer: 16.5 nM

Question: For `COC(=O)N[C@H](C(=O)Nc1ccccc1CC[C@@H]1CN[C@H](C#N)CO1)C(c1ccccc1)c1ccccc1` [Example 37, methyl [(1S)-2-[(2-{2-[(2R,5R)-5-cyanomorpholin-2-yl]ethyl}phenyl)amino]-1-(diphenylmethyl)-2-oxoethyl]carbamate], which IC50 is on record?
Answer: 246 nM

Question: How did the IC50 turn out when `COC(=O)N[C@H](C(=O)Nc1ccccc1CC[C@@H]1CN[C@H](c2nnn[nH]2)CO1)C(c1ccccc1)c1ccccc1` [Example 38, Nα-(methoxycarbonyl)-β-phenyl-N-(2-{2-[(2R,5R)-5-(1H-tetrazol-5-yl)morpholin-2-yl]ethyl}phenyl)-L-phenylalaninamide] was run?
Answer: 2 nM

Question: Which IC50 does the source give for `COC(=O)N[C@H](C(=O)Nc1ccccc1CC[C@@H]1CN[C@H](c2nnnn2Cc2ccccc2)CO1)C(c1ccccc1)c1ccccc1` [Example 39, methyl [(1S)-2-[(2-{2-[(2R,5R)-5-(1-benzyl-1H-tetrazol-5-yl)morpholin-2-yl]ethyl}phenyl)amino]-1-(diphenylmethyl)-2-oxoethyl]carbamate] here?
Answer: 653 nM

Question: With `COC(=O)N[C@H](C(=O)Nc1ccccc1CC[C@@H]1CN[C@H](c2ncon2)CO1)C(c1ccccc1)c1ccccc1` [Example 41, methyl {(1S)-1-(diphenylmethyl)-2-[(2-{2-[(2R,5R)-5-(1,2,4-oxadiazol-3-yl)morpholin-2-yl]ethyl}phenyl)amino]-2-oxoethyl}carbamate] as the molecule, how does the IC50 read?
Answer: 304 nM

Question: `COC(=O)N[C@H](C(=O)Nc1ccccc1CC[C@@H]1CN[C@H](c2ncc[nH]2)CO1)C(c1ccccc1)c1ccccc1` [Example 42] was tested. Which IC50 did it give?
Answer: 2.62 nM

Question: `COC(=O)N[C@H](C(=O)Nc1ccccc1CC[C@@H]1CN[C@H](c2ncc(C)[nH]2)CO1)C(c1ccccc1)c1ccccc1` [Example 43, methyl {(1S)-1-(diphenylmethyl)-2-[(2-{2-[(2R,5R)-5-(5-methyl-1H-imidazol-2-yl)morpholin-2-yl]ethyl}phenyl)amino]-2-oxoethyl}carbamate] was tested. Which IC50 did it give?
Answer: 1.02 nM

Question: How did the IC50 turn out when `COC(=O)N[C@H](C(=O)Nc1ccccc1CC[C@@H]1CN[C@H](c2ncc(Cc3ccccc3)[nH]2)CO1)C(c1ccccc1)c1ccccc1` [Example 44, N-(2-{2-[(2R,5R)-5-(5-benzyl-1H-imidazol-2-yl)morpholin-2-yl]ethyl}phenyl)-Nα-(methoxycarbonyl)-β-phenyl-L-phenylalaninamide] was run?
Answer: 0.568 nM

Question: For `COC(=O)N[C@H](C(=O)Nc1ccccc1CC[C@@H]1CN[C@H](c2ncc(-c3ccccc3)[nH]2)CO1)C(c1ccccc1)c1ccccc1` [Example 45, Nα-(methoxycarbonyl)-β-phenyl-N-(2-{2-[(2R,5R)-5-(5-phenyl-1H-imidazol-2-yl)morpholin-2-yl]ethyl}phenyl)-L-phenylalaninamide], which IC50 is on record?
Answer: 0.041 nM

Question: `COC(=O)N[C@H](C(=O)Nc1ccccc1CC[C@@H]1CN[C@H](c2cnc(-c3ccccc3)[nH]2)CO1)C(c1ccccc1)c1ccccc1` [Example 46, Nα-(methoxycarbonyl)-β-phenyl-N-(2-{2-[(2R,5R)-5-(2-phenyl-1H-imidazol-5-yl)morpholin-2-yl]ethyl}phenyl)-L-phenylalaninamide] was tested. Which IC50 did it give?
Answer: 841 nM

Question: With `COC(=O)N[C@H](C(=O)Nc1ccccc1CC[C@@H]1CN[C@H](c2cnc(C)[nH]2)CO1)C(c1ccccc1)c1ccccc1` [Example 47, Nα-(methoxycarbonyl)-N-(2-{2-[(2R,5R)-5-(2-methyl-1H-imidazol-5-yl)morpholin-2-yl]ethyl}phenyl)-β-phenyl-L-phenylalaninamide] as the molecule, how does the IC50 read?
Answer: 378 nM

Question: How did the IC50 turn out when `COC(=O)N[C@H](C(=O)Nc1ccccc1CC[C@@H]1CN[C@H](c2nc(C)c(C)[nH]2)CO1)C(c1ccccc1)c1ccccc1` [Example 48, N-(2-{2-[(2R,5R)-5-(4,5-dimethyl-1H-imidazol-2-yl)morpholin-2-yl]ethyl}phenyl)-Nα-(methoxycarbonyl)-β-phenyl-L-phenylalaninamide] was run?
Answer: 1.81 nM

Question: For `C#C[C@@H]1CO[C@H](CCc2ccccc2NC(=O)[C@@H](NC(=O)OC)C(c2ccccc2)c2ccccc2)CN1` [Example 49, N-(2-{2-[(2R,5R)-5-ethynylmorpholin-2-yl]ethyl}phenyl)-Nα-(methoxycarbonyl)-β-phenyl-L-phenylalaninamide], which IC50 is on record?
Answer: 824 nM

Question: How did the IC50 turn out when `COC(=O)N[C@H](C(=O)Nc1ccccc1CC[C@@H]1CN[C@H](c2cn(Cc3ccccc3)nn2)CO1)C(c1ccccc1)c1ccccc1` [Example 50, N-(2-{2-[(2R,5R)-5-(1-benzyl-1H-1,2,3-triazol-4-yl)morpholin-2-yl]ethyl}phenyl)-Nα-(methoxycarbonyl)-β-phenyl-L-phenylalaninamide] was run?
Answer: 36.3 nM

Question: `COC(=O)N[C@H](C(=O)Nc1ccccc1CC[C@@H]1CN[C@H](c2cnnn2Cc2ccccc2)CO1)C(c1ccccc1)c1ccccc1` [Example 51, N-(2-{2-[(2R,5R)-5-(1-benzyl-1H-1,2,3-triazol-5-yl)morpholin-2-yl]ethyl}phenyl)-Nα-(methoxycarbonyl)-β-phenyl-L-phenylalaninamide] was tested. Which IC50 did it give?
Answer: 576 nM

Question: For `COC(=O)N[C@H](C(=O)Nc1ccccc1CC[C@@H]1CN[C@H](c2cnn[nH]2)CO1)C(c1ccccc1)c1ccccc1` [Example 52, Nα-(methoxycarbonyl)-β-phenyl-N-(2-{2-[(2R,5R)-5-(1H-1,2,3-triazol-5-yl)morpholin-2-yl]ethyl}phenyl)-L-phenylalaninamide], which IC50 is on record?
Answer: 250 nM

Question: `COC(=O)N[C@H](C(=O)Nc1ccccc1CC[C@@H]1CN[C@H](c2cc3ccccc3[nH]2)CO1)C(c1ccccc1)c1ccccc1` [Example 53, N-(2-{2-[(2R,5R)-5-(1H-indol-2-yl)morpholin-2-yl]ethyl}phenyl)-Nα-(methoxycarbonyl)-β-phenyl-L-phenylalaninamide] was tested. Which IC50 did it give?
Answer: 44.4 nM
